Experimental data from patent US11192890B2, “FGFR kinase inhibitors and pharmaceutical uses” (AUCKLAND UNISERVICES LIMITED, priority 2017, dated 2021).

Tests used:
[1] = system: FGFR2 in SUM52 cells (phospho-ERK1/2); assay: Drug washout Western blot assay, SUM52 cells; type: cell-based; conditions: SUM52; for phospho-ERK1/2 after extensive drug washout: washout prior to FGF-stimulation
Experimental: Cells were seeded on the day prior to drug treatment (1 million cells/well; 6-well plate).
Drug stocks were prepared in media using 1 mM or 10 mM DMSO stock solutions. Media was aspirated from each well and replaced with 2 ml of drug-free media for control wells or 2 ml of diluted drug for treated wells. Cells were exposed to drug for 30 min. Recombinant FGF (50 ng/well) was added to each well 15 minutes prior to the end of the drug exposure and protein was extracted as below.
Cells were exposed to drug for 30 min as above. Media was aspirated and each well was washed with 5 ml drug-free media. The wash media was aspirated and replaced with 2 ml drug-free media and cells incubated for a further 30 minutes, after which the wash protocol was repeated. Cells were incubated for a further 90 minutes in drug-free media. Recombinant FGF (50 ng/well) was added to each well 15 minutes prior to the end of the drug-free incubation and protein was extracted as below.
Cell lysates were prepared in 250 μL of RIPA lysis buffer containing protease inhibitor (1:100). After incubation on ice (30 min) and centrifugation (13,000 rpm, 5 min, 4° C.) the supernatants containing the proteins were stored (−20° C.) until required. Bicinchoninic acid (BCA) assay was used to determine the protein concentration of individual cell lysate samples.

[2] = system: FGFR3 in SW780 cells (phospho-ERK1/2); assay: Drug washout Western blot assay, SW780 cells; type: cell-based; conditions: SW780; for phospho-ERK1/2 after extensive drug washout: washout prior to FGF-stimulation
[3] = system: FGFR3-amplified SW780 bladder cancer cells; assay: Cell proliferation assay (SRB); conditions: Homo sapiens, SW780, 120 h, read-out: Cellular Anti-proliferative IC50, SW780, 5 days drug exposure
[4] = target: T1, FGFR4 (Homo sapiens, UniProt P22455); assay: Isolated enzyme FRET-based Z-Lyte kinase inhibition assay; type: biochemical; conditions: means from 3 independent experiments; read-out: Isolate Enzyme Inhibition IC50, FGFR4
T1 construct: purchased Invitrogen
Experimental: (§1) FGFR1-4 and the Z-Lyte Kinase Assay Kit were purchased from Invitrogen. The concentration gradients from 5.1×10^−11 to 1.0×10^−6 mol/L were used for all the test compounds. The experiments were performed according to the instructions of the manufacturer.
(§2) FGFR1-4 isolated enzyme activity was determined using the FRET-based Z-Lyte kinase inhibition assay. The data are the means from 3 independent experiments.

[5] = target: T2, FGFR3 (Homo sapiens, UniProt P22607); assay: as above; type: biochemical; conditions: means from 3 independent experiments; read-out: Isolate Enzyme Inhibition IC50, FGFR3
T2 construct: purchased Invitrogen
Experimental: as §1, §2

[6] = target: T3, FGFR2 (Homo sapiens, UniProt P21802); assay: as above; type: biochemical; conditions: means from 3 independent experiments; read-out: Isolate Enzyme Inhibition IC50, FGFR2
T3 construct: purchased Invitrogen
Experimental: as §1, §2

[7] = system: FGFR2-amplified SUM52 breast cancer cells; assay: Cell proliferation assay (SRB); type: cell-based; conditions: SUM52, 120 h, read-out: Cellular Anti-proliferative IC50, SUM52, 5 days drug exposure
[8] = system: FGFR4-amplified Hep3B hepatocellular carcinoma cells; assay: Cell proliferation assay (SRB); type: cell-based; conditions: Homo sapiens, Hep3B; read-out: Cellular Anti-proliferative IC50, Hep3B
[9] = system: FGFR1 in H520 cells (phospho-ERK1/2); assay: Drug washout Western blot assay, H520 cells; type: cell-based; conditions: H520, 30 min, washout prior to FGF-stimulation
[10] = target: T4, recombinant FGFR1 (C584S) kinase domain (Homo sapiens, UniProt P11362, C584S); assay: FGFR1 (C584S) covalent binding protein mass spectrometry assay; conditions: protein:inhibitor 1:10, 37° C.
T4 construct: made in house; host or cells: pETDuet vector, IPTG induction in Terrific Broth (bacterial)
Experimental: The previously cloned C488A/C584S FGFR1 construct was modified by site-directed mutagenesis to provide a gene encoding the C584S FGFR1 kinase domain with the cysteine at amino acid C488 reinstated. Expression and purification of this protein followed the protocol described above but with the addition of 10% glycerol to all buffers and a change of buffer pH to a value of 8.5. Protein for mass spectrometry was concentrated to ˜40 mg/ml and was mixed 1:1 (v/v) with glycerol, and then frozen at −20° C. or flash cooled in liquid nitrogen and stored at −80° C. until needed.
Protein samples were buffer exchanged to remove glycerol (the final buffer comprised 20 mM Tris-HCl pH 8.5, 10% (v/v) glycerol, 20 mM NaCl, 5 mM EDTA, 2 mM TCEP) and were mixed with each inhibitor at 1:10 molar ratio (protein:inhibitor). Final protein concentration was 20 μM. […] Samples were mixed with 90 μL of 0.1% formic acid to quench the reaction followed by flash cooling in liquid nitrogen. Samples were stored at −80° C. until needed. All experiments were carried out in triplicate.
Samples were subjected to liquid chromatography mass spectrometry (LC-MS) to show mass changes attributable to irreversible inhibition. Mass spectrometry experiments were performed at the University of Auckland Mass Spectrometry Center using an electropspray QSTAR® XL ESI quadrupole Time-of-Flight (QToF) MS system (Applied Biosystems) operated in positive ionization mode. The instrument was calibrated using Renin Substrate Standard (SCIEX), over the m/z range 100-2000. Protein/inhibitor samples were thawed and 2 μL volumes injected into a liquid chromatography (LC) BIOshell™ A400 Protein C4 HPLC column (10 cm×2.1 mm, 3.4 μm) attached to the mass spectrometer. […] Following elution, samples were directly injected into the mass spectrometer for separation and mass analysis. Mass spectrometry data were processed and analysed using the PeakView™ 2.1 software and the Bio Tool Kit plug-in (SCIEX) and covered an m/z range of 330-1600. Deconvolution calculations allowed visualisation of intact mass protein peaks and allowed peak area measurement to assess the percentage of protein covalently modified by each inhibitor at each time point. Data was plotted using GraphPad Prism 7 (GraphPad).

[11] = 100 nM, 30 min, then FGF-stimulation
[12] = 30 min exposure, 100 nM, with and without washout

T4 sequence (P11362 with tags, fused parts or gaps C584S): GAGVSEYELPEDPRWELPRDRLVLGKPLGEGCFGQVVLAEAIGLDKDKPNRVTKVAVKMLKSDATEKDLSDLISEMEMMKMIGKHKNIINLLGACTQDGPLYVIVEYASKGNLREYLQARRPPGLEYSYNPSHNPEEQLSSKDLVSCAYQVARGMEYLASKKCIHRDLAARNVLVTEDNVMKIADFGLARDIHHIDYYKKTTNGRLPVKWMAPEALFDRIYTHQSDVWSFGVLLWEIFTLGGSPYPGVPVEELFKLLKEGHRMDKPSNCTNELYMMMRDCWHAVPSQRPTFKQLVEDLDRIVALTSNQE
T2 sequence (P22607 23-806): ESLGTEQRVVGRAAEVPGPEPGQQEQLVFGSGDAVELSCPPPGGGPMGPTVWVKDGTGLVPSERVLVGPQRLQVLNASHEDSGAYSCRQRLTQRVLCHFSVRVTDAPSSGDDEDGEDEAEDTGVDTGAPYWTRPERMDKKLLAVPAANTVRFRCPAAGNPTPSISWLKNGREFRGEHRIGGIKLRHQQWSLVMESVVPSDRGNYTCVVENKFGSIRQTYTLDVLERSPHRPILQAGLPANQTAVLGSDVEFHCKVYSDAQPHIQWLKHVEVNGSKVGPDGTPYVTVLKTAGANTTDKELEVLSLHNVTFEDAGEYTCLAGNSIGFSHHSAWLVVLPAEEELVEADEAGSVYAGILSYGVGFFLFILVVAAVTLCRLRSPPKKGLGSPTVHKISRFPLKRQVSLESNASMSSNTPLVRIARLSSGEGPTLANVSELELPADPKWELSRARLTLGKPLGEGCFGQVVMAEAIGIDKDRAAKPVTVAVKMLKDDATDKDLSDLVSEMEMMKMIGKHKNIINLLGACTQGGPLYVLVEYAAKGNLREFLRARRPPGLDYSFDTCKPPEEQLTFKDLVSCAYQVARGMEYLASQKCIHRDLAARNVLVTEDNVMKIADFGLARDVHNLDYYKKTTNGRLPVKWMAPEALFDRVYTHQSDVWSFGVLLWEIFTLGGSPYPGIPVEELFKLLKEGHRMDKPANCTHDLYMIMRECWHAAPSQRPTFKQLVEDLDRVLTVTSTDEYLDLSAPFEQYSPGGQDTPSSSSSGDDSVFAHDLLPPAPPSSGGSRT
T1 sequence (P22455 22-802): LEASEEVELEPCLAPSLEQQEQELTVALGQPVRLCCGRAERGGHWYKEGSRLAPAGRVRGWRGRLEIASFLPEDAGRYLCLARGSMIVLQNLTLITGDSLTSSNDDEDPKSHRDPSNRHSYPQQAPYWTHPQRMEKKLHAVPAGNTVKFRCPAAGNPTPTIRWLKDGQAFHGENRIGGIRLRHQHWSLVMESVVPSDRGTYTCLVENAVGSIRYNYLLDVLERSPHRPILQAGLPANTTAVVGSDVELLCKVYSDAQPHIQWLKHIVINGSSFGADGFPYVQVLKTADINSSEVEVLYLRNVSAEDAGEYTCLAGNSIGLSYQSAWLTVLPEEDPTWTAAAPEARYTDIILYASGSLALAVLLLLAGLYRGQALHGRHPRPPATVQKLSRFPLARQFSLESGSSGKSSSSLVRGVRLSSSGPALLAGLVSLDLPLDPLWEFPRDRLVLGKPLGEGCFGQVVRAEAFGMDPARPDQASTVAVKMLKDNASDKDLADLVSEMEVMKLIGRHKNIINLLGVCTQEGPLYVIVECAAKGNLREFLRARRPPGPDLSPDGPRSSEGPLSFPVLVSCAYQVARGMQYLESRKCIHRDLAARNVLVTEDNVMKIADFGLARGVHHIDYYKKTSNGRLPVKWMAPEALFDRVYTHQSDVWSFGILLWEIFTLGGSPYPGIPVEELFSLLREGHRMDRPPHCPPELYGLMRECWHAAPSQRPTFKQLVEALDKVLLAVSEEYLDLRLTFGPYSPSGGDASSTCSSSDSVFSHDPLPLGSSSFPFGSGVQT
T3 sequence (P21802 22-821): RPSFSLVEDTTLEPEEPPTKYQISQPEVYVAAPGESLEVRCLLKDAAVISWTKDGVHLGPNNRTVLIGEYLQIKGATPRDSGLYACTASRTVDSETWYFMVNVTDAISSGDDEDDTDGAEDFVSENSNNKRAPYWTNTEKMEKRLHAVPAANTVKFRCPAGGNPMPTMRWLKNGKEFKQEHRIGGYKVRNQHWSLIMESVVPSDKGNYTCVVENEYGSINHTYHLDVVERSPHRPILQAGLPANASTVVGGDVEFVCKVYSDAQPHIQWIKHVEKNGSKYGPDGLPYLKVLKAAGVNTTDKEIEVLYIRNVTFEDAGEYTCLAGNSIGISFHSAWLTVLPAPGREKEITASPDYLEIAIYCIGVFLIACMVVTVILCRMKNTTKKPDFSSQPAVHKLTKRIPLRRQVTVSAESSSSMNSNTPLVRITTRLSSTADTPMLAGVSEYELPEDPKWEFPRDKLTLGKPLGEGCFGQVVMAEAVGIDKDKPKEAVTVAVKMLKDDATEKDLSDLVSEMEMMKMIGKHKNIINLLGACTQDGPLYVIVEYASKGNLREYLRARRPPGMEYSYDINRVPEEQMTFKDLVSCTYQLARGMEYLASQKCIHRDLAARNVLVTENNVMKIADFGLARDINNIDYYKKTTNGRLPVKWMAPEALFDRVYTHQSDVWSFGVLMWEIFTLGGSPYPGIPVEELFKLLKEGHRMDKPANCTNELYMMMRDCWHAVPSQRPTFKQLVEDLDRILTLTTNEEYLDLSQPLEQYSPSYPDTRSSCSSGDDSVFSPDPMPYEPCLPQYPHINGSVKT

## CNc1ncc2c(n1)N([C@H]1CCN(C(=O)/C=C/CN(C)C)C1)C(=O)N(c1c(Cl)c(OC)cc(OC)c1Cl)C2 [Compound 103, (S,E)-3-(2,6-dichloro-3,5-dimethoxyphenyl)-1-(1-(4-(dimethylamino)but-2-enoyl)pyrrolidin-3-yl)-7-(methylamino)-3,4-dihydropyrimido[4,5-d]pyrimidin-2(1H)-one]
[1]; [11]
  inhibition of phosphorylation of ERK1/2, no washout: complete inhibition
[1]; 100 nM, 30 min
  phospho-ERK1/2 after extensive drug washout: restoration
[1]; 1000 nM, 30 min
  phospho-ERK1/2 after extensive drug washout: restoration
[1]; [12]
  reversible or irreversible inhibition of FGFR2 in cells: reversible inhibitor
[2]; [11]
  inhibition of phosphorylation of ERK1/2, no washout: complete inhibition
[2]; 100 nM, 30 min
  phospho-ERK1/2 after extensive drug washout: restoration
[2]; 1000 nM, 30 min
  phospho-ERK1/2 after extensive drug washout: restoration
[2]; [12]
  reversible or irreversible inhibition of FGFR3 in cells: reversible inhibitor
[3]
  IC50: 31 nM
[4]
  IC50: 287 nM
[5]
  IC50: 17 nM
[6]
  IC50: 3.3 nM
[7]
  IC50: 4.8 nM
[8]
  IC50: 48 nM
[9]; 100 nM
  phospho-ERK1/2 after extensive drug washout: restoration
[9]; 1000 nM
  phospho-ERK1/2 after extensive drug washout: restoration

## COc1cc(OC)c(Cl)c(N2Cc3cnc(Nc4ccccc4)nc3N(C3CCN(C(=O)/C=C/CN(C)C)CC3)C2=O)c1 [Compound 128, (E)-3-(2-chloro-3,5-dimethoxyphenyl)-1-(1-(4-(dimethylamino)but-2-enoyl)piperidin-4-yl)-7-(phenylamino)-3,4-dihydropyrimido[4,5-d]pyrimidin-2(1H)-one]
[10]
  % Conversion to FGFR1 (C584S) covalent adduct after 120 minutes incubation: 48%

## COc1cc(OC)c(Cl)c(N2Cc3cnc(Nc4ccc(N5CCOCC5)cc4)nc3N(C3CCN(C(=O)/C=C/CN(C)C)CC3)C2=O)c1Cl [Compound 129, (E)-3-(2,6-dichloro-3,5-dimethoxyphenyl)-1-(1-(4-(dimethylamino)but-2-enoyl)piperidin-4-yl)-7-((4-morpholinophenyl)amino)-3,4-dihydropyrimido[4,5-d]pyrimidin-2(1H)-one]
[10]
  % Conversion to FGFR1 (C584S) covalent adduct after 120 minutes incubation: 46%

## COc1cc(OC)c(Cl)c(N2Cc3cnc(Nc4ccc(N5CCOCC5)cc4)nc3N(C3CCN(C(=O)/C=C/CN(C)C)CC3)C2=O)c1 [Compound 130, (E)-3-(2-chloro-3,5-dimethoxyphenyl)-1-(1-(4-(dimethylamino)but-2-enoyl)piperidin-4-yl)-7-((4-morpholinophenyl)amino)-3,4-dihydropyrimido[4,5-d]pyrimidin-2(1H)-one]
[10]
  % Conversion to FGFR1 (C584S) covalent adduct after 120 minutes incubation: 46%

## COc1cc(OC)cc(N2Cc3cnc(Nc4ccc(N5CCOCC5)cc4)nc3N(C3CCN(C(=O)/C=C/CN(C)C)CC3)C2=O)c1 [Compound 131, (E)-3-(3,5-dimethoxyphenyl)-1-(1-(4-(dimethylamino)but-2-enoyl)piperidin-4-yl)-7-((4-morpholinophenyl)amino)-3,4-dihydropyrimido[4,5-d]pyrimidin-2(1H)-one]
[10]
  % Conversion to FGFR1 (C584S) covalent adduct after 120 minutes incubation: 39%
